Experimental data published in US10087449B2, “Pharmaceutical composition for treating chronic kidney disease” (SHIONOGI & CO., LTD., priority 2014, dated 2018).

Experiments:
[1] = tested on: NRK49F cells; experiment: TGFβ stimulation of NRK49F rat kidney fibroblasts, gene expression by quantitative PCR; assay type: cell-based
Method: Effect of stimulation by TGFβ, known as a promoting factor of fibrosis (Refer to Nephrol Dial Transplant., 1998, vol. 13, p. 573-579), on gene expression of NNMT, COL1A1, COL3A1 and COL4A1 was examined using NRK49F cells that are rat kidney fibroblasts. NRK49F cells were seeded into 12 well plates at 4×10^4 cells/well/mL and culture medium was changed to serum-free medium after 72 hr. Recombinant human TGFβ1 (R & D Co., Ltd., 5 ng/mL) was added after 24 hr and the cells were cultured for 6, 24 and 48 hr. After culture, total RNA was extracted from cells and the gene expression levels of NNMT, COL1A1, COL3A1 and COL4A1 were analyzed by quantitative PCR.
(§1) The siRNA of NNMT was introduced into NRK49F cells, rat kidney fibroblast cell line, the effect of which on enhanced gene expression of COL1A1, COL3A1 and COL4A1 by TGFβ stimulation was examined (FIG. 4). After NRK49F cells were seeded into 12 well plates at 4×10^4 cells/well/mL and culture for 72 hr, culture medium was changed to antibiotic-free medium and siRNA sequence (F; […] (SEQ ID NO: 2), R; […] (SEQ ID NO: 3)) for rat NNMT purchased was introduced into cells for 24 hr by lipofection method using RNAiMAX (Invitrogen Corp.) which is an introduction reagent of siRNA. Next, culture medium was changed to serum-free medium and after 24 hr, human recombinant TGFβ (R & D Co., Ltd., 5 ng/mL) was added and cultured for 48 hr. After culture, total RNA was extracted from cells and the gene expression levels of NNMT, COL1A1, COL3A1 and COL4A1 were analyzed by quantitative PCR.

[2] = tested on: rat NNMT; experiment: siRNA knock-down of NNMT gene expression in TGFβ-stimulated NRK49F cells (quantitative PCR); assay type: cell-based; details: TGFβ 5 ng/mL, 48 hr
Method: as §1

[3] = tested on: gene expression of COL1A1, COL3A1 and COL4A1 in NRK49F cells; experiment: Effect of NNMT siRNA on collagen gene expression enhanced by TGFβ in NRK49F cells (quantitative PCR); assay type: cell-based, rat; details: TGFβ 5 ng/mL, 48 hr
Method: as §1

| Substance | increase in gene expression of COL1A1 ([1]; TGFβ 5 ng/mL, 48 hr) | increase in gene expression of COL3A1 ([1]; TGFβ 5 ng/mL, 48 hr) | increase in gene expression of COL4A1 ([1]; TGFβ 5 ng/mL, 48 hr) | increase in gene expression of NNMT ([1]; TGFβ 5 ng/mL, 48 hr) | gene expression level of COL1A1 over time ([1]; TGFβ1 5 ng/mL, 6, 24 and 48 hr) | gene expression level of COL3A1 over time ([1]; TGFβ1 5 ng/mL, 6, 24 and 48 hr) | gene expression level of NNMT over time ([1]; TGFβ1 5 ng/mL, 6, 24 and 48 hr) | gene expression of COL4A1 over time ([1]; TGFβ1 5 ng/mL, 6, 24 and 48 hr) | knock-down of gene expression of NNMT ([2]; siRNA 0.01 nM) | knock-down of gene expression of NNMT ([2]; siRNA 0.1 nM) | knock-down of gene expression of NNMT ([2]; siRNA 1 nM) | decrease in gene expression of COL1A1 ([3]; siRNA 0.01 nM) | decrease in gene expression of COL3A1 ([3]; siRNA 0.01 nM) | decrease in gene expression of COL4A1 ([3]; siRNA 0.01 nM) | decrease in gene expression of COL1A1 ([3]; siRNA 0.1 nM) | decrease in gene expression of COL3A1 ([3]; siRNA 0.1 nM) | decrease in gene expression of COL4A1 ([3]; siRNA 0.1 nM) | decrease in gene expression of COL1A1 ([3]; siRNA 1 nM) | decrease in gene expression of COL3A1 ([3]; siRNA 1 nM) | decrease in gene expression of COL4A1 ([3]; siRNA 1 nM) |
| --- | --- | --- | --- | --- | --- | --- | --- | --- | --- | --- | --- | --- | --- | --- | --- | --- | --- | --- | --- | --- |
| TGFβ1: Recombinant human TGFβ1 (R & D Co., Ltd.), promoting factor of fibrosis used as stimulus | 7.1 fold | 6.5 fold | 3.1 fold | about 3.6 fold | time-dependent increases | time-dependent increases | time-dependent increases | reached the maximum level in 6 hr and left the plateau to 24 hr | – | – | – | – | – | – | – | – | – | – | – | – |
| siRNA of NNMT: siRNA for rat NNMT, purchased; F CCACAUCCAAUAAUGAAGGACUCUU (SEQ ID NO: 2), R AAGAGUCCUUCAUUAUUGGAUGUGG (SEQ ID NO: 3) (listed as RNA, chemistry not given here) | – | – | – | – | – | – | – | – | 23% | 45% | 60% | 20% | 20% | 33% | 36% | 31% | 15% | 78% | 62% | 57% |
